Test results reported in patent US20170165239A1, “USE OF BETA-CARBOLINE ALKALOID IN INHIBITING XANTHINE OXIDASE ACTIVITY” (Food Industry Research And Development Institute, priority 2015, published 2017).

Target: xanthine oxidase (Homo sapiens, UniProt P47989)
Assay: Xanthine oxidase inhibitory activity measured by HPLC (xanthine content)
Format: biochemical
Settings: Flazin samples 0.625-20.0 mg/ml; xanthine 50 μg/ml, xanthine oxidase 0.1 U, 30° C., 30 min; FIG. 1
Procedure: Xanthine oxidase inhibitory activity was measured as follows. Firstly, concentrations (0.625, 1.25, 2.5, 5.0, 10.0 and 20.0 mg/ml) of Flazin samples were prepared. Then, xanthine oxidase inhibitory activity was measured by HPLC by the following procedure. In a reaction tube, 880 μl of xanthine (50 μg/ml in 100 mM PBS) and 40 μl of 50 mM PBS or 40 μl of the Flazin samples were premixed, and 80 μl […] of xanthine oxidase (0.1 U) was added to initiate the reaction. The reaction was incubated at 30° C. for 30 min., after which an equal volume of absolute ethanol was added to terminate the reaction. The terminated reaction was filtered through a 0.22 μm membrane filter and the content of xanthine in the reactions was analyzed by HPLC. Xanthine oxidase inhibitory activity of the samples was calculated as follows: […]

xanthine oxidase, sequence (P47989 whole entry, species assumed): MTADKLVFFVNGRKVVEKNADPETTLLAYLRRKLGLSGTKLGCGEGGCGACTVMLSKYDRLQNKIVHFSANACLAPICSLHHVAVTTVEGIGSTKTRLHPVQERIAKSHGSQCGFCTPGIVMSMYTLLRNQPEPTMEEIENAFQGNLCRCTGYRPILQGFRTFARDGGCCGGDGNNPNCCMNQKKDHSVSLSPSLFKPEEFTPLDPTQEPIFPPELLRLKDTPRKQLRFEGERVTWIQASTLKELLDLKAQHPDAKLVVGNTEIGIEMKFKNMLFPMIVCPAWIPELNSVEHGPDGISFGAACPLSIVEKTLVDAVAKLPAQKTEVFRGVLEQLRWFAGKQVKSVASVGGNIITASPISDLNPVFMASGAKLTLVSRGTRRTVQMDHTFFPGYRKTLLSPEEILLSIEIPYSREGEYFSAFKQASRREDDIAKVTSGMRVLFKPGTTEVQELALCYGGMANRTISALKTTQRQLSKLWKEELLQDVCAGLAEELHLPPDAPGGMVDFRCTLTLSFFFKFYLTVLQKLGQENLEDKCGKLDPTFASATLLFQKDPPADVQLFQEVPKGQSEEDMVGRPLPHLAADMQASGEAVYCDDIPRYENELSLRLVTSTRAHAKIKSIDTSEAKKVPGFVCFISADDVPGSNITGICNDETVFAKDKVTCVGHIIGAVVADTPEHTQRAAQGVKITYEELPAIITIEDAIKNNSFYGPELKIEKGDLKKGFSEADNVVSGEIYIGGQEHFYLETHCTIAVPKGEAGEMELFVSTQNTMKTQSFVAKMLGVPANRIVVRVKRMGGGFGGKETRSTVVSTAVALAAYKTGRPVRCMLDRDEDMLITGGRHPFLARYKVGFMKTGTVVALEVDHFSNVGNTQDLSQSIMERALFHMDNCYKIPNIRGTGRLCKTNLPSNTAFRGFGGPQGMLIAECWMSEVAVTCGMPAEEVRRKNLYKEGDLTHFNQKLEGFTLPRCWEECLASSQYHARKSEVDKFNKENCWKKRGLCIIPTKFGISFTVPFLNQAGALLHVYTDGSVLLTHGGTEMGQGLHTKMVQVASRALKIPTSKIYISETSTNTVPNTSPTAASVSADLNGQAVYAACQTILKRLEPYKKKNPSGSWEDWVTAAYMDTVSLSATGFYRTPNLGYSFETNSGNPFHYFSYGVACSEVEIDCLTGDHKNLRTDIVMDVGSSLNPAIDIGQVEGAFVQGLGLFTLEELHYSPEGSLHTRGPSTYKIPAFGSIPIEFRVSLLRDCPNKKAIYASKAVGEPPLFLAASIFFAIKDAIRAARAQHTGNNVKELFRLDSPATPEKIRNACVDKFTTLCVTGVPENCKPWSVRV

O=C(O)c1cc2c([nH]c3ccccc32)c(-c2ccc(CO)o2)n1 [Flazin, 1-[5-(hydroxymethyl)furan-2-yl]-9H-pyrido[3,4-b]indole-3-carboxylic acid]
IC50: ~32.1 mM
